Reference: US10167257B2, “Indole derivatives for use in medicine” (IOmet Pharma Ltd., priority 2014, dated 2019)

Experiments:
IDO (SKOV-3 cells) = target: T1, IDO (SKOV-3 cells) (Homo sapiens, UniProt P14902); test: IDO cell-based assay (SKOV-3, IFNγ-induced), kynurenine production; settings: SKOV-3 ovary adenocarcinoma cells, IFNγ 500 ng/ml, 500 μM L-Trp, 48 h, kynurenine by absorbance at 490 nm
T1 construct: This assay utilised cancer cells which expressed either TDO or IDO; host or cells: SKOV-3 ovary adenocarcinoma cells, IFNγ-induced
Method in brief: (§1)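 SKOV-3 cells (IDO, induced with 500 ng/ml IFNγ) or A172 glioblastoma cells (TDO) were incubated with compound and 500 μM L-Trp for 48 h at 37 °C in phenol-red-free RPMI with dialysed serum. Supernatant kynurenine was measured with 1% Ehrlich's reagent as absorbance at 490 nm.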

TDO (A172 cells) = target: T2, TDO (A172 cells) (Homo sapiens, UniProt P48775); test: TDO cell-based assay (A172), kynurenine production; settings: A172 human glioblastoma cells, 500 μM L-Trp, 48 h, kynurenine by absorbance at 490 nm
T2 construct: This assay utilised cancer cells which expressed either TDO or IDO; host or cells: A172 human glioblastoma cells
Method in brief: as §1

T1 sequence (P14902 whole entry): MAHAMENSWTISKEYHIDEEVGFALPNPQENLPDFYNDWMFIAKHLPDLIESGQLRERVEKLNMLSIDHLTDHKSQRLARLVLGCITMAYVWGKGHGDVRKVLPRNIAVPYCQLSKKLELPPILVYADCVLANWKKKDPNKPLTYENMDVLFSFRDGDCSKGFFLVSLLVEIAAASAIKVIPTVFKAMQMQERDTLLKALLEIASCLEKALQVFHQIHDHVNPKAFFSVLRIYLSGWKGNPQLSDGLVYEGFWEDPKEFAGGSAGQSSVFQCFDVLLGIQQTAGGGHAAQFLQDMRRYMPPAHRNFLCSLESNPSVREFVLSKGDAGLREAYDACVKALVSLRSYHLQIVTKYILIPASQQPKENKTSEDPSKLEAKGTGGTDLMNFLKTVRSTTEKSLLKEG
T2 sequence (P48775 whole entry): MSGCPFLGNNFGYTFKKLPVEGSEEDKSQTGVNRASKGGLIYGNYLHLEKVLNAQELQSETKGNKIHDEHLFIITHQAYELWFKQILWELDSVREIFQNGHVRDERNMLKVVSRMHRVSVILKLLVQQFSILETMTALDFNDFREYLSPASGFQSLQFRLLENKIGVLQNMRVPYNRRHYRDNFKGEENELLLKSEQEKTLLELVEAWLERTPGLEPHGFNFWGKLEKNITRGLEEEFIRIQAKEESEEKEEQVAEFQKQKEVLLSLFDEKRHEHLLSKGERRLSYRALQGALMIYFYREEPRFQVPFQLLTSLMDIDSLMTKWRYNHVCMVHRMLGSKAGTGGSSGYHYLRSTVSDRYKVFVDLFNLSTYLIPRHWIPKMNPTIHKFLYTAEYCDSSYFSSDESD

Structure (SMILES) | IDO cellular assay (SKOV3) pIC50 (IDO (SKOV-3 cells)) | TDO cellular assay (A172) pIC50 (TDO (A172 cells))
Cc1cc(C2(NC(=O)c3cc4cc(C#N)ccc4[nH]3)CC2)no1 [Compound 219] | +++ (+++ = pIC50 ≥5.50) | − (− = pIC50 <4.50)
O=C(NC1(c2ccccc2)COC1)c1cc2c(F)c(Cl)ccc2[nH]1 [Compound 220] | +++ (+++ = pIC50 ≥5.50) | − (− = pIC50 <4.50)
Cc1noc(C(C)NC(=O)c2cc3cc(C#N)ccc3[nH]2)n1 (centres unmarked) [Compound 221] | + (+ = pIC50 4.50-<5.00) | − (− = pIC50 <4.50)
Cc1nc(C(C)NC(=O)c2cc3cc(C#N)ccc3[nH]2)co1 (centres unmarked) [Compound 222] | ++ (++ = pIC50 5.00-<5.50) | − (− = pIC50 <4.50)
Cn1ccc(C2(NC(=O)c3cc4cc(Cl)ccc4[nH]3)CC2)n1 [Compound 224] | ++ (++ = pIC50 5.00-<5.50) | ++ (++ = pIC50 5.00-<5.50)
Cc1nc(C2(NC(=O)c3cc4cc(Cl)ccc4[nH]3)CC2)co1 [Compound 225] | +++ (+++ = pIC50 ≥5.50) | − (− = pIC50 <4.50)
Cc1nc(C2(NC(=O)c3cc4cc(C#N)ccc4[nH]3)CC2)co1 [Compound 226] | +++ (+++ = pIC50 ≥5.50) | − (− = pIC50 <4.50)
O=C(NC1(c2ccccc2)COC1)c1cc2cc(Cl)cc(F)c2[nH]1 [Compound 227] | +++ (+++ = pIC50 ≥5.50) | ++ (++ = pIC50 5.00-<5.50)
Cc1ncc(C(C)NC(=O)c2cc3cc(C#N)ccc3[nH]2)o1 (centres unmarked) [Compound 229] | +++ (+++ = pIC50 ≥5.50) | +++ (+++ = pIC50 ≥5.50)
N#Cc1ccc2[nH]c(C(=O)NC3(c4ccccc4)CCCC3)cc2c1 [Compound 231] | +++ (+++ = pIC50 ≥5.50) | − (− = pIC50 <4.50)
Cc1nnc(C2(NC(=O)c3cc4cc(Cl)ccc4[nH]3)CC2)[nH]1 [Compound 233] | + (+ = pIC50 4.50-<5.00) | − (− = pIC50 <4.50)
Cc1cc(C(C)NC(=O)c2cc3cc(C#N)ccc3[nH]2)no1 (centres unmarked) [Compound 235] | +++ (+++ = pIC50 ≥5.50) | − (− = pIC50 <4.50)
Cn1cc(C2(NC(=O)c3cc4cc(C#N)ccc4[nH]3)COC2)cn1 [Compound 236] | +++ (+++ = pIC50 ≥5.50) | − (− = pIC50 <4.50)
Cn1cc(C2(NC(=O)c3cc4cc(Br)ccc4[nH]3)COC2)cn1 [Compound 238] | +++ (+++ = pIC50 ≥5.50) | − (− = pIC50 <4.50)
CCc1ccc2[nH]c(C(=O)NC(C)c3cnn(C)c3)cc2c1 (centres unmarked) [Compound 243] | +++ (+++ = pIC50 ≥5.50) | − (− = pIC50 <4.50)
N#Cc1ccc2[nH]c(C(=O)NC3(c4ccc(F)cc4)COC3)cc2c1 [Compound 245] | +++ (+++ = pIC50 ≥5.50) | − (− = pIC50 <4.50)
O=C(NC1(c2ccccc2)CC1)C1Cc2cc(Cl)ccc2N1 (centres unmarked) [Compound 246] | +++ (+++ = pIC50 ≥5.50) | + (+ = pIC50 4.50-<5.00)
O=C(NC1(c2ccccc2)CC1)c1cc2cc(OC(F)(F)F)ccc2[nH]1 [Compound 248] | +++ (+++ = pIC50 ≥5.50) | − (− = pIC50 <4.50)
CC(NC(=O)c1cc2cc(OC(F)(F)F)ccc2[nH]1)c1cnn(C)c1 (centres unmarked) [Compound 249] | +++ (+++ = pIC50 ≥5.50) | + (+ = pIC50 4.50-<5.00)
Cn1cc(C2(NC(=O)c3cc4cc(Cl)ccc4[nH]3)CCCC2)cn1 [Compound 250] | +++ (+++ = pIC50 ≥5.50) | − (− = pIC50 <4.50)
Cn1cc(C2(NC(=O)c3cc4cc(Cl)ccc4[nH]3)CCCCC2)cn1 [Compound 251] | +++ (+++ = pIC50 ≥5.50) | − (− = pIC50 <4.50)
CC(NC(=O)c1cc2cc(Br)ccc2[nH]1)c1cnn(C)c1 (centres unmarked) [Compound 254] | +++ (+++ = pIC50 ≥5.50) | − (− = pIC50 <4.50)
CC(C)Oc1ccc2[nH]c(C(=O)NC3(c4ccccc4)CC3)cc2c1 [Compound 261] | +++ (+++ = pIC50 ≥5.50) | − (− = pIC50 <4.50)
CC(C)Oc1ccc2[nH]c(C(=O)NC(C)c3cnn(C)c3)cc2c1 (centres unmarked) [Compound 262] | + (+ = pIC50 4.50-<5.00) | − (− = pIC50 <4.50)
Cn1cc(C2(NC(=O)c3cc4cc(Br)ccc4[nH]3)CC2)cn1 [Compound 263] | +++ (+++ = pIC50 ≥5.50) | − (− = pIC50 <4.50)
CCc1ccc2[nH]c(C(=O)NC3(c4cnn(C)c4)CC3)cc2c1 [Compound 264] | +++ (+++ = pIC50 ≥5.50) | − (− = pIC50 <4.50)

Second part, the compound after the results:

IDO cellular assay (SKOV3) pIC50 (IDO (SKOV-3 cells)) | TDO cellular assay (A172) pIC50 (TDO (A172 cells)) | Structure (SMILES)
+++ (+++ = pIC50 ≥5.50) | − (− = pIC50 <4.50) | O=C(NC1(c2ccncc2)CC1)c1cc2cc(Cl)ccc2[nH]1 [Compound 223]
++ (++ = pIC50 5.00-<5.50) | ++ (++ = pIC50 5.00-<5.50) | Cc1ncc(C(C)NC(=O)c2cc3cc(Cl)ccc3[nH]2)o1 (centres unmarked) [Compound 228]
+++ (+++ = pIC50 ≥5.50) | − (− = pIC50 <4.50) | O=C(NC1(c2ccccc2)CCCC1)c1cc2cc(Cl)ccc2[nH]1 [Compound 230]
+++ (+++ = pIC50 ≥5.50) | ++ (++ = pIC50 5.00-<5.50) | Cc1cc(C(C)NC(=O)c2cc3cc(Cl)ccc3[nH]2)no1 (centres unmarked) [Compound 234]
++ (++ = pIC50 5.00-<5.50) | − (− = pIC50 <4.50) | O=C(NC(c1ccccc1)c1ccccc1)c1cc2cc(Cl)ccc2[nH]1 [Compound 237]
+ (+ = pIC50 4.50-<5.00) | − (− = pIC50 <4.50) | CC(NC(=O)c1cc2cc(OCc3ccccc3)ccc2[nH]1)c1cnn(C)c1 (centres unmarked) [Compound 239]
+++ (+++ = pIC50 ≥5.50) | − (− = pIC50 <4.50) | O=C(NC1(c2ccccc2)CCCCC1)c1cc2cc(Cl)ccc2[nH]1 [Compound 240]
+++ (+++ = pIC50 ≥5.50) | − (− = pIC50 <4.50) | CCc1ccc2[nH]c(C(=O)N[C@H](C)c3ccccc3)cc2c1 [Compound 241]
+++ (+++ = pIC50 ≥5.50) | − (− = pIC50 <4.50) | CCc1ccc2[nH]c(C(=O)NC3(c4ccccc4)CC3)cc2c1 [Compound 242]
+++ (+++ = pIC50 ≥5.50) | − (− = pIC50 <4.50) | O=C(NC1(c2ccc(F)cc2)COC1)c1cc2cc(Cl)ccc2[nH]1 [Compound 244]
+++ (+++ = pIC50 ≥5.50) | − (− = pIC50 <4.50) | C[C@@H](NC(=O)c1cc2cc(OC(F)(F)F)ccc2[nH]1)c1ccccc1 [Compound 247]
+++ (+++ = pIC50 ≥5.50) | − (− = pIC50 <4.50) | C[C@@H](NC(=O)c1cc2cc(Br)ccc2[nH]1)c1ccccc1 [Compound 252]
+++ (+++ = pIC50 ≥5.50) | − (− = pIC50 <4.50) | O=C(NC1(c2ccccc2)CC1)c1cc2cc(Br)ccc2[nH]1 [Compound 253]
+ (+ = pIC50 4.50-<5.00) | + (+ = pIC50 4.50-<5.00) | CN1CCC(C(NC(=O)c2cc3cc(Cl)ccc3[nH]2)c2ccccc2)CC1 (centres unmarked) [Compound 256]
+++ (+++ = pIC50 ≥5.50) | − (− = pIC50 <4.50) | CCC(NC(=O)c1cc2cc(Cl)ccc2[nH]1)c1cnn(C)c1 (centres unmarked) [Compound 258]
+++ (+++ = pIC50 ≥5.50) | − (− = pIC50 <4.50) | CC(C)C(NC(=O)c1cc2cc(Cl)ccc2[nH]1)c1cnn(C)c1 (centres unmarked) [Compound 259]
+++ (+++ = pIC50 ≥5.50) | + (+ = pIC50 4.50-<5.00) | CC(C)Oc1ccc2[nH]c(C(=O)N[C@H](C)c3ccccc3)cc2c1 [Compound 260]
